{
  "source": "patent US5428031A",
  "about": "“Methods of treating cardiac arrhythmia” (priority 1993, dated 1995)",
  "tested_on": "guinea pig ventricular myocytes",
  "assay": "current-clamp action potential duration (APD90) in isolated myocytes, 0.2 Hz",
  "type": "cell-based",
  "settings": "Cavia porcellus, Ventricular myocyte, 4 cells",
  "protocol": "Guinea pig ventricular myocytes were isolated using a modification of the procedure described by Mitra R and Morad M., \"A Uniform Enzymatic Method for Dissociation of Myocytes from Hearts and Stomachs of Nertilorates\", Am. J. Physiol. 249:H1056-60 (1985). Excised hearts were perfused through the aorta (retrograde fashion) at a rate of 10 ml/min with oxygenated, warmed (37° C.) solutions described below. The heart was initially perfused for 7 minutes with a Tyrode's solution containing, in mM: 132 NaCl, 4 KCl, 1.2 MgCl2, 10 HEPES (formal name N-2-Hydroxyethylpiperazine-N-2-ethanesulfonic acid), 5 glucose, pH=7.2. The head was then perfused with the same nominally Ca^2+ -free solution containing 150 units/ml Type II collagenase (Worthington) and 0.5 units/ml Type XIV protease (Sigma) for 8 minutes. This perfusate was followed by a Tyrode's solution containing 0.2 mM CaCl2 (without enzymes) for 5 minutes. The digested ventricles were cut into small pieces and gently shaken until cells were visibly dispersed. […]\nThe suction microelectrode technique described by Giles, W. R. and Shibata, E. F., \"Voltage clamp of bull-frog cardiac pacemaker cells: a quantitative, analysis of potassium currents\". […]\nTo record action potentials, single cells were bathed in 1.8 mM Ca^2+ -Tyrode's solution. […] Data were analyzed as percent (%) change in action potential duration at 90% of repolarization (APD90). […]",
  "data": [
    {"smiles": "Cc1cccc(NC(=O)N[C@@H]2N=C(c3ccccc3)c3ccccc3N(C)C2=O)c1", "note": "[Compound 4, (R)-N-(2,3-dihydro-1-methyl-2-oxo-5-phenyl-1H-1,4-benzodiazepin-3-yl)-N'-(3-methylphenyl)urea]", "values": [
      {"measurement": "percent increase in APD90 at 5 µM", "result": 202, "unit": "%"}
    ]}
  ]
}
